Test results from ChEMBL document CHEMBL1201862, “PubChem BioAssay data set” (2004).
Activity calls are given as the source filed them.

What was measured:
[1] = target: T1, Runt-related transcription factor 1/Core-binding factor subunit beta (Homo sapiens, UniProt Q01196+Q13951); experiment: inhibitors of RUNX1 Runt–CBFb-SMMHC binding, biochemical, TR-FRET (AID 1438); format: protein assay
[2] = target: T2, Heat shock factor protein 1 (Mus musculus, UniProt P38532); experiment: HSF1 potentiators in luciferase reporter cells, confirmation, cell-based, NIH3T3, luminescence, dose retest (AID 435004); format: functional;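 note: stress induced by proteasome inhibitor MG132 added 30 min after compound; luciferase reporter driven by HSF1 response element in NIH3T3 cells; actives raise luminescence as potentiators of the MG132 stress response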
T2 sequence (P38532 whole entry): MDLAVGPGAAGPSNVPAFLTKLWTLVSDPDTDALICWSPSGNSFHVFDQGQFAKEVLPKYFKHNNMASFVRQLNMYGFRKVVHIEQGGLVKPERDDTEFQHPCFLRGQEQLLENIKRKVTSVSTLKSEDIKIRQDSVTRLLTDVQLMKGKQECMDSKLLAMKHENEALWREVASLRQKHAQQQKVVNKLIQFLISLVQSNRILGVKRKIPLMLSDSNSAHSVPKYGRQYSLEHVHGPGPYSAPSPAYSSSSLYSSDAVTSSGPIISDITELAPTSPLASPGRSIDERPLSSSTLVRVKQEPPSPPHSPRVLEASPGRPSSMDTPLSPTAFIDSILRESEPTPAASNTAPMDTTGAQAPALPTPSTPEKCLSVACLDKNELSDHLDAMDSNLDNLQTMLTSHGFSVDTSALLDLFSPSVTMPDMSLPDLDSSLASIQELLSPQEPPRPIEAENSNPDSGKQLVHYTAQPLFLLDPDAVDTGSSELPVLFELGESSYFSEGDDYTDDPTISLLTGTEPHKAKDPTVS

[3] = target: T3, Voltage-gated N-type calcium channel alpha-1B subunit/Amyloid beta A4 precursor protein-binding family A member 1 (Homo sapiens, UniProt Q00975+Q02410); format: protein assay
[4] = target: T1, Runt-related transcription factor 1/Core-binding factor subunit beta; experiment: inhibitors of RUNX1 Runt–CBFb-SMMHC binding, primary screen, biochemical, FRET, Cerulean-Runt, Venus-CBFb-SMMHC, uHTS (AID 1434); format: protein assay;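 note: partner is the CBFb-SMMHC leukemia fusion protein rather than wild-type CBFb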
[5] = target: T3, Voltage-gated N-type calcium channel alpha-1B subunit/Amyloid beta A4 precursor protein-binding family A member 1; format: protein assay; remark: listed apart in the source
[6] = target: DNA damage-inducible transcript 3 protein (Mus musculus, UniProt P35639); format: functional, Cricetulus griseus
[7] = Luminescence Cell-Based Dose Retest to Confirm Inhibitors of Cancer Stem Cells. [Related pubchem assays (depositor defined):AID2717, AID2721]; format: functional; conditions: Homo sapiens
[8] = target: T4, Type-1 angiotensin II receptor (Homo sapiens, UniProt P30556); experiment: AT1 receptor agonists, dose response, selectivity assay for APJ receptor agonist project, cell-based, uHTS hits (AID 488865); format: functional;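 note: beta-arrestin recruitment to AT1 measured by enzyme fragment complementation luminescence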
T4 sequence (P30556 whole entry): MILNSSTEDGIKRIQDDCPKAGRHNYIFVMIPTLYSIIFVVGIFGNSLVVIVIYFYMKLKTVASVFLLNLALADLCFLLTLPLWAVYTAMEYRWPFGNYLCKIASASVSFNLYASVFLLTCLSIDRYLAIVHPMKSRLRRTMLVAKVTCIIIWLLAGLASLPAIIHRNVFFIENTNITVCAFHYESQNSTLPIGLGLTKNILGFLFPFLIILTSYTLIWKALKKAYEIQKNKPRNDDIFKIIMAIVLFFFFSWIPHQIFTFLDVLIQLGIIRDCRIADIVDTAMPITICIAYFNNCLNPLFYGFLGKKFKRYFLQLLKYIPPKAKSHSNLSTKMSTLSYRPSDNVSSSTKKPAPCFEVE

[9] = target: G-protein coupled receptor 55 (Homo sapiens, UniProt Q9Y2T6); experiment: SAR analysis of selective Agonists of GPR55 using an Image-Based Assay - Set 2. [Related pubchem assays (depositor defined):AID1961, AID1965]; format: functional
[10] = target: T5, G-protein coupled receptor 35 (Homo sapiens, UniProt Q9HC97); experiment: SAR analysis of Agonists of the GPR35 Receptor using an Image-Based Assay - Set 3. [Related pubchem assays (depositor defined):AID1961, AID1965]; format: functional
[11] = target: T6, Cannabinoid receptor 1 (Homo sapiens, UniProt P21554); experiment: SAR analysis of antagonists of the Cannabinoid Receptor 1 using an Image-Based Assay - Set 3. [Related pubchem assays (depositor defined):AID1961, AID1965]; format: functional
[12] = target: T7, Cannabinoid receptor 2 (Homo sapiens, UniProt P34972); experiment: SAR analysis of agonists of the Cannabinoid Receptor 2 using an Image-Based Assay - Set 2. [Related pubchem assays (depositor defined):AID1961, AID1965]; format: functional
[13] = target: T7, Cannabinoid receptor 2; experiment: SAR analysis of antagonists of the Cannabinoid Receptor 2 using an Image-Based Assay - Set 2. [Related pubchem assays (depositor defined):AID1961, AID1965]; format: functional
[14] = target: T5, G-protein coupled receptor 35; experiment: SAR analysis of Antagonists of the GPR35 Receptor using an Image-Based Assay - Set 4. [Related pubchem assays (depositor defined):[…]]; format: functional
[15] = target: T6, Cannabinoid receptor 1; experiment: SAR analysis of agonists of the Cannabinoid Receptor 1 using an Image-Based Assay - Set 3. [Related pubchem assays (depositor defined):AID1961, AID1965]; format: functional
[16] = target: Troponin, cardiac muscle (Homo sapiens, UniProt P19429+P45379+P63316); experiment: Fluorescence-based biochemical high throughput dose response assay for activators of the calcium sensitivity of cardiac Regulated Thin Filaments (RTF). [Related pubchem assays (depositor defined):AID493008, AID493018, AID504382, AID504383]; format: protein-complex assay
[17] = target: Cytochrome P450 2C9 (Homo sapiens, UniProt P11712)
[18] = target: T8, Cytochrome P450 1A2 (Homo sapiens, UniProt P05177);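 note: PubChem cytochrome P450 panel assay, CYP1A2 panel member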
T8 sequence (P05177 whole entry): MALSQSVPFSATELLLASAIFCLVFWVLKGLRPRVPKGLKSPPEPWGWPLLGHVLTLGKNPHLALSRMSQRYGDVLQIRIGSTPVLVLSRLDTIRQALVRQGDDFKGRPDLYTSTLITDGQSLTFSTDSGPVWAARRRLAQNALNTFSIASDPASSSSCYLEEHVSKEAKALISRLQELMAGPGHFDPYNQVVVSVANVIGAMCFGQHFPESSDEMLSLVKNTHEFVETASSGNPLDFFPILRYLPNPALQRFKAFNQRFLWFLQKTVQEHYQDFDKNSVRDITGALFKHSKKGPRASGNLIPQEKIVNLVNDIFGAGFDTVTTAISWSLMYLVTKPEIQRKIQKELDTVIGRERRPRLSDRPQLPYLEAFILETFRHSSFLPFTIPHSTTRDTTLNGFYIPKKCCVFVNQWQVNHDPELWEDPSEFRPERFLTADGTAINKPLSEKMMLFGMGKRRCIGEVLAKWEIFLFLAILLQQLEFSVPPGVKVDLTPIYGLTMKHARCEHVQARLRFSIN

[19] = THP-1 cell cytotoxicity, dose response, cytotoxicity control for Vif-APOBEC3G degradation inhibitor project, THP-1 cells (AID 1117359); format: functional; conditions: Human immunodeficiency virus 1, THP-1
[20] = target: T9, Histone-lysine N-methyltransferase NSD2 (Homo sapiens, UniProt O96028); format: biochemical
T9 sequence (O96028 whole entry): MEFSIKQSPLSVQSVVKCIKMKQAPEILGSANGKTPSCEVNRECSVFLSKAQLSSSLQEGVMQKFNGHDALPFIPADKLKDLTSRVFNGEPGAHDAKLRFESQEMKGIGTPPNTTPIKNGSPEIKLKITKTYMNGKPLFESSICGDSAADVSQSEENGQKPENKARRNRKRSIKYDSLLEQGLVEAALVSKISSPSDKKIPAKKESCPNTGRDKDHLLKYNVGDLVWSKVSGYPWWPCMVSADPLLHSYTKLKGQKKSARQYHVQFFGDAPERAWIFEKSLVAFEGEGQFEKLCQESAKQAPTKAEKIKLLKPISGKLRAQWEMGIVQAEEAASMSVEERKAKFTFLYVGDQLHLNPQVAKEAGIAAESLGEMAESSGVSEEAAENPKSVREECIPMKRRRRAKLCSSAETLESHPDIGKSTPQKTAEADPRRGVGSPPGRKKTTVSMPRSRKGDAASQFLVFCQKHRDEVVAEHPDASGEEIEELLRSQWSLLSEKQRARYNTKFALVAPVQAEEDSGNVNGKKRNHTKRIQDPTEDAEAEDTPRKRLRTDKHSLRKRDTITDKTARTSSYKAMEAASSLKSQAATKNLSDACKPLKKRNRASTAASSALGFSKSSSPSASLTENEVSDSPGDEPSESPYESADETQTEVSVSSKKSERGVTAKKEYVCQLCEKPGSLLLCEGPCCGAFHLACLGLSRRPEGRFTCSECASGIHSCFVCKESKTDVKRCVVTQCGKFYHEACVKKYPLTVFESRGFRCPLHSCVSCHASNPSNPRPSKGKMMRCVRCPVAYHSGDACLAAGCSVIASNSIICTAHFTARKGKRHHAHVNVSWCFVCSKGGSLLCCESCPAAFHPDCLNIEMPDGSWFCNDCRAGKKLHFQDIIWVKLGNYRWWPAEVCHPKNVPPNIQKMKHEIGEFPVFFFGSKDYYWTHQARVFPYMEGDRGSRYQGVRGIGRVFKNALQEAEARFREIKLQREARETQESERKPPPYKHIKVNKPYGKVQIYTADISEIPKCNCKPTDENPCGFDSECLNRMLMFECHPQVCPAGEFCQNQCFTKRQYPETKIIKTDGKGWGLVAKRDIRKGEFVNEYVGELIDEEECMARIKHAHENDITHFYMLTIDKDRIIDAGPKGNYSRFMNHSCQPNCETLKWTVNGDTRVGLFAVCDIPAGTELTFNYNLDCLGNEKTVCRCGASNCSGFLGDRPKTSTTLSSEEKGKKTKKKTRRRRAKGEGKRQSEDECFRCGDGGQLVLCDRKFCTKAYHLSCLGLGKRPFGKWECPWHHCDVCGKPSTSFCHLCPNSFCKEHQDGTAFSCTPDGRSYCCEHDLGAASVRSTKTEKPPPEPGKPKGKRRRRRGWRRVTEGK

[21] = target: Nucleotide-binding oligomerization domain-containing protein 2 (Homo sapiens, UniProt Q9HC29); experiment: NOD2 signaling inhibitors, cell-based, luminescence, uHTS, HEK293 (AID 1566); format: functional
[22] = system: HEK293; experiment: cells; format: functional, cell-based; conditions: Homo sapiens
[23] = system: HEK293; experiment: NOD1 signaling inhibitors, primary screen, cell-based, luminescence, uHTS (AID 1578); format: functional; conditions: Homo sapiens
[24] = system: HEK293; experiment: cells; format: functional, cell-based; conditions: Homo sapiens; remark: listed apart in the source
[25] = system: HEK293; experiment: cells; format: functional, cell-based; conditions: Homo sapiens; remark: listed apart in the source
[26] = target: DNA (cytosine-5)-methyltransferase 1 (Homo sapiens, UniProt P26358); experiment: DNMT1 methyltransferase inhibitors, confirmation, biochemical, fluorescent molecular beacon (AID 602386); format: functional
[27] = system: HEK293; experiment: NOD2 signaling inhibitors in MDP-stimulated cells, cell-based, uHTS, luminescence (AID 2001); format: functional; conditions: Homo sapiens
[28] = target: T10, Microphthalmia-associated transcription factor (Homo sapiens, UniProt O75030); experiment: TRPM1 promoter luciferase signal decrease, dose response, MITF inhibitor project, cell-based, SK-MEL-5, cherry-picked, set 3 (AID 493073); format: functional
T10 sequence (O75030 whole entry): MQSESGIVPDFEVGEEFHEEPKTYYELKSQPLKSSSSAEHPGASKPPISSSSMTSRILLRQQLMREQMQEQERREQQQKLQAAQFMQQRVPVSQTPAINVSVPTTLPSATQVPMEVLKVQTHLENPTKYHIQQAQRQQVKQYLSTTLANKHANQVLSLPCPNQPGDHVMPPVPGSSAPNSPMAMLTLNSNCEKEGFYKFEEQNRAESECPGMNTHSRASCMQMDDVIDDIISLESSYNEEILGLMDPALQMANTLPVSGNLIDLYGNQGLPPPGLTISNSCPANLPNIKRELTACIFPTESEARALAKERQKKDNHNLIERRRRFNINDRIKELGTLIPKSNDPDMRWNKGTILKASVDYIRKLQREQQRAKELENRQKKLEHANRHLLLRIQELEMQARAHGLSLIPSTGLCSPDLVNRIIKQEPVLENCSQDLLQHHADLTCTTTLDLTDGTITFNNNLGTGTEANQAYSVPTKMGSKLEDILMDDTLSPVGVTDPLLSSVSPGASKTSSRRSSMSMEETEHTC

With `Cc1cc(C)cc(-n2c3nc4ccccc4nc3c3c(=O)n(Cc4ccco4)cnc32)c1` the IC50 [1] was 34 µM (active), the EC50 [2] was > 260 µM (inactive) and the IC50 [3] was 4.14 µM (active). For the same molecule, the IC50 [4] was > 100 µM (inactive) and the IC50 [5] was 1.28 µM (active).

With `COc1ccc(/C=C/C(=O)NC(=S)NNC(=O)c2cccnc2)cc1` the “Absolute IC50 (CHOP)” value [6] was 10 µM.

In the case of `CCCCCCc1cc2cc(-c3nnc(-c4cc(OC)c(OC)c(OC)c4)o3)c(=O)oc2cc1O`, the AC50 [7] is reported as 7.35 µM (active) and the EC50 [8] is reported as > 100 µM (inactive).

For `COc1ccc(S(=O)(=O)N2CCOCC2)cc1NC(=O)c1cc2c(s1)CCCCCC2`, the EC50 [9] was 17.7 µM (inactive), the EC50 [10] was > 32 µM (inactive) and the IC50 [11] was 18.2 µM (inactive). The EC50 [12] was > 32 µM (inactive), the IC50 [13] was > 32 µM (inactive) and the IC50 [14] was > 32 µM (inactive). For the same molecule, the EC50 [15] was > 32 µM (inactive).

In the case of `Cc1cc2nc(C3CCCN(C(=O)NCc4ccccc4)C3)[nH]c2cc1C` (stereo not drawn), the EC50 [16] is reported as > 71.6 µM (inactive), the AC50 [17] is reported as 22.4 µM (inconclusive) and the AC50 [18] is reported as 25.1 µM (inconclusive).

For `CC(C)N1C(=O)/C(=C/C=C/c2ccco2)C(=O)N(Cc2ccco2)C1=O`, the CC50 [19] was > 40 µM (active), the AC50 [20] was 8.26 µM (active) and the EC50 [21] was > 20 µM (inactive). The IC50 [22] was 18.8 µM (active), the EC50 [23] was > 20 µM (inactive) and the IC50 [24] was > 20 µM (inactive). For the same molecule, the IC50 [25] was > 20 µM (inactive), the IC50 [26] was 8.31 µM (active) and the IC50 [27] was > 20 µM (inactive). The AC50 [28] was 9.97 µM (active).
